Data on two molecules can be found in paper PMC10026764, “Overcoming the imatinib-resistant BCR-ABL mutants with new ureidobenzothiazole chemotypes endowed with potent and broad-spectrum anticancer activity” (Journal of Enzyme Inhibition and Medicinal Chemistry, 2023).

Assay [1] concerns the target ABL^M351T (Homo sapiens, UniProt P00519, M351T). The assay is described as follows: In vitro enzymatic activity, imatinib-resistant mutant panel. The format is biochemical.
In assay [2] the test system is NCI-H226. Details: method as in earlier work. Particulars: imatinib mesylate NSC 743414, NCI data; cited from earlier work.
The test system of assay [3] is A549/ATCC. Details: method as in earlier work. Particulars: imatinib mesylate NSC 743414, NCI data; cited from earlier work.
Assay [4] concerns ACHN. Also on record: method as in earlier work. Conditions: imatinib mesylate NSC 743414, NCI data; cited from earlier work.
Assay [5] concerns CAKI-1. Also on record: method as in earlier work. Conditions: imatinib mesylate NSC 743414, NCI data; cited from earlier work.
The test system of assay [6] is A498. Details: method as in earlier work. Particulars: imatinib mesylate NSC 743414, NCI data; cited from earlier work.
For assay [7], the system named is CCRF-CEM. Also on record: method as in earlier work. Particulars: imatinib mesylate NSC 743414, NCI data; cited from earlier work.
The subject of assay [8] is OVCAR-8. Also on record: method as in earlier work. Conditions: imatinib mesylate NSC 743414, NCI data; cited from earlier work.
Assay [9] deals with SK-MEL-2. Details: method as in earlier work. Conditions: imatinib mesylate NSC 743414, NCI data; cited from earlier work.
Assay [10] relates to NCI-H322M. Also on record: method as in earlier work. Particulars: imatinib mesylate NSC 743414, NCI data; cited from earlier work.

Usually IC50 stands for the concentration needed to halve the response being measured. High values mean lower potency, low ones higher potency. The term GI50 denotes the concentration that inhibits growth by half.

`CCN1CCN(c2ccc(NC(=O)Nc3nc4ccc(-c5ccccc5OC)cc4s3)cc2)CC1` [Compound 2b] registered an IC50 in assay [1] of 0.00106 µM.

Regarding `Cc1ccc(NC(=O)c2ccc(CN3CCN(C)CC3)cc2)cc1Nc1nccc(-c2cccnc2)n1` [Imatinib], the GI50 in assay [2] was 18.1 µM; in [3], 24.5 µM; in assay [4] it was 25.2 µM; in assay [5], 34 µM; in assay [6], 22 µM; in [7] it was 17 µM. The GI50 is 27.7 µM in assay [8], 25 µM in assay [9] and 22.8 µM in assay [10].
